Laboratory results from patent US9817000B2, “Method for identifying compounds that modulate a T2R taste receptor” (The Regents of the University of California, priority 1999, dated 2017).

Tests used:
mGluR1 receptor = target: T1, mGluR1 receptor (Rattus norvegicus, UniProt P23385); test: FURA-2 [Ca2+]i imaging in HEK-293 cells with Gα15 and mGluR1 receptor; assay type: cell-based; settings: 20 μM
T1 construct: expressed in transfected cells; host or cells: HEK-293 cells containing Gα15
Text: (§1) In this system, receptor activation leads to increases in intracellular calcium [Ca2+]i, which can be monitored at the single cell level using the FURA-2 calcium-indicator dye (Tsien et al., Cell Calcium 6:145-157 (1985)). To test and optimize Gα15 coupling, two different GPCRs, a Gαi-coupled μ-opioid receptor (Reisine, Neuropharm. 34:463-472 (1995)) and a Gαq-coupled mGluR1 receptor (Masu et al., Nature 349:760-765 (1991)), were used. Transfection of these receptors into HEK-293 cell produced robust, agonist-selective, and Gα15-dependent Ca^2+ responses (FIG. 1).

mT2R5 = target: T2, mT2R5 (Mus musculus, UniProt Q9JKT4); test: FURA-2 [Ca2+]i imaging in HEK-293 cells expressing Gα15 and rho-mT2R5 (taster, DBA/2 allele); assay type: cell-based
T2 construct: expressed in transfected cells; host or cells: modified HEK-293 cells (PEAKrapid) expressing Gα15; pEAK10 vector
T2 sequence (Q9JKT4 1-300): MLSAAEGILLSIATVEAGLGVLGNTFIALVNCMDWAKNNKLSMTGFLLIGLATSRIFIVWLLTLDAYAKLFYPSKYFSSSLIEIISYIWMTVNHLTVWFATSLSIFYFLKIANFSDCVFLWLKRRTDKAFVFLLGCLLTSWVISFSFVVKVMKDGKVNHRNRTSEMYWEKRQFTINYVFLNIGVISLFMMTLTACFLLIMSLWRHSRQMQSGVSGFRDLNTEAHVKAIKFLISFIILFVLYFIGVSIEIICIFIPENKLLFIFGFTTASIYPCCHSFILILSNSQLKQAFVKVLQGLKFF
Text: as §1
(§2) A number of studies have shown that many GPCRs, in particular sensory receptors, require specific “chaperones” for maturation and targeting through the secretory pathway (Baker et al., Embo J 13:4886-4895 (1994); Dwyer et al., Cell 93:455-466 (1998)). Recently, Krautwurst et al. (Cell 95:917-926 (1998)) generated chimeric receptors consisting of the first 20 amino acids of rhodopsin and various rodent olfactory receptors. These were targeted to the plasma membrane and functioned as odorant receptors in HEK-293 cells. To determine whether rhodopsin sequences can also help target T2Rs to the plasma membra, rhodopsin-T2R chimeras (rho-T2Rs) were constructed. […] Similar results were obtained with 11 human and 16 rodent T2Rs (see below). To further enhance the level of T2R expression, rho-T2Rs were placed under the control of a strong EF-1α promoter, and introduced as episomal plasmids into modified HEK-293 cells expressing Gα15 (pEAKrapid cells).
(§3) A bridge overlap PCR extension technique was used to generate rho-T2R chimeras, which contain the first 39 amino acids of bovine rhodopsin in frame with human and rodent T2R coding sequences (Mehta and Singh, Biotechniques 26:1082-1086 (1999). All receptors were cloned into a pEAK10 mammalian expression vector (Edge Biosystems, MD). Modified HEK-293 cells (PEAK^rapid cells; Edge BioSystems, MD) were grown and maintained at 37° C. in UltraCulture medium (Bio Whittaker) supplemented with 5% fetal bovine serum, 100 μg/ml Gentamycin sulphate (Fisher), 1 μg/ml Amphotericin B and 2 mM GlutaMax I (Lifetechnologies). For transfection, cells were seeded onto matrigel coated 24-well culture plates or 35 mm recording chambers. After 24 h at 37° C., cells were washed in OptiMEM medium (Lifetechnologies) and transfected using LipofectAMINE reagent (Lifetechnologies). Transfection efficiencies were estimated by co-transfection of a GFP reporter plasmid, and were typically >70%. Immunofluoresence staining, and activity assays were performed 36-48 h after transfection.
(§4) Transfected cells were washed once in Hank's balanced salt solution with 1 mM sodium pyruvate and 10 mM HEPES, pH 7.4 (assay buffer), and loaded with 2 μM FURA-2 AM (Molecular Probes) for 1 h at room temperature. The loading solution was removed and cells were incubated in 200 μl of assay buffer for 1 h to allow the cleavage of the AM ester. For most experiments, 24-well tissue culture plates containing cells expressing a single rho-T2R were stimulated with 200 μl of a 2× tastant solution (see next section). [Ca^2+]i changes were monitored using a Nikon Diaphot 200 microscope equipped with a 10×/0.5 fluor objective with the TILL imaging system (T.I.L.L Photonics GmbH). Acquisition and analysis of the fluorescence images used TILL-Vision software. Generally, [Ca^2+]i was measured for 80-120 s by sequentially illuminating cells for 200 ms at 340 nm and 380 nm and monitoring the fluorescence emission at 510 nm using a cooled CCD camera. The F340/F380 ratio was analyzed to measure [Ca^2+]i.
(§5) Kinetics of activation and deactivation were measured using a bath perfusion system. Cells were seeded onto a 150 μl microperfusion chamber, and test solutions were pressure-ejected with a picospritzer apparatus (General Valve, Inc.). Flow-rate was adjusted to ensure complete exchange of the bath solution within 4-5 s. […]

hT2R4 = target: T3, hT2R4 (Homo sapiens, UniProt Q9NYW5); test: FURA-2 [Ca2+]i imaging in HEK-293 cells expressing Gα15 and rho-hT2R4; assay type: cell-based; settings: high concentrations
T3 construct: Full-length hT2Rs were isolated by PCR amplification of genomic DNA; expressed in transfected cells; host or cells: HEK-293 cells (PEAKrapid) expressing Gα15
T3 sequence (Q9NYW5 1-299): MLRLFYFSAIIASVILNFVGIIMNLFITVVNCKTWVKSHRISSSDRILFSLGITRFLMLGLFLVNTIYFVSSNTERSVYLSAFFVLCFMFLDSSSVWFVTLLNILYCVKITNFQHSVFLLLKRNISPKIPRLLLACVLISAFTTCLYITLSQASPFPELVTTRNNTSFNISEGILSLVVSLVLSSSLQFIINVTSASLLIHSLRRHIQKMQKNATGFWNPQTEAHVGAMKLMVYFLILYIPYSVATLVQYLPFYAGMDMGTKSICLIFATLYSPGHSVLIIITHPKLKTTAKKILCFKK
Text: as §1, §2, §3, §4, §5

mT2R8 = target: T4, mT2R8 (Mus musculus, UniProt Q9JKT3); test: FURA-2 [Ca2+]i imaging in HEK-293 cells expressing Gα15 and rho-mT2R8; assay type: cell-based; settings: high concentrations
T4 construct: expressed in transfected cells; host or cells: HEK-293 cells (PEAKrapid) expressing Gα15
T4 sequence (Q9JKT3 1-297): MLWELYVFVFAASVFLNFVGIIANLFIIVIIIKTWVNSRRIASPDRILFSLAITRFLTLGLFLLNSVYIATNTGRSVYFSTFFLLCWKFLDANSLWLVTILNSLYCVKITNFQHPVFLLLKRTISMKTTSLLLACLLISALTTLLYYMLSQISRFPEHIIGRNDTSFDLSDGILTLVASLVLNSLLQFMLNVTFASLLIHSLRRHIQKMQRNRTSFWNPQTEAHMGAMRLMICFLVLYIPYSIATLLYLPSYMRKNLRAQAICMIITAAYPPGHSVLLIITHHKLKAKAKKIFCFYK
Text: as §1, §2, §3
as §4, with “For most experiments, 24-well tissue culture plates containing cells expressing a single rho-T2R were stimulated with 200 μl of a 2× tastant solution (see next section).” left out
Kinetics of activation and deactivation were measured using a bath perfusion system. […]

[1] = target: T5, mT2R5 coupling to gustducin (Mus musculus, UniProt Q9JKT4); test: Tastant-induced GTPγS binding to gustducin with insect cell membranes containing rho-mT2R5; assay type: biochemical; settings: 1 mM
T5 construct: infectious Bacmid containing rhodopsin tagged mT2R5 (DBA/2-allele) was produced using the Bac-to-Bac system; rhodopsin tag (rho); made in house; host or cells: insect larval cells infected with recombinant Bacmid (Bac-to-Bac baculovirus system); membrane preparation
T5 sequence (Q9JKT4 1-300): T2 sequence (Q9JKT4 1-300)
Protocol: To investigate the selectivity of T2R-G-protein coupling, mT2R5 was chosen for study because its activation by cycloheximide recapitulates mouse taste responses. Rho-tagged mT2R5 and gustducin were prepared using a baculovirus expression system. mT2R5-containing membranes were incubated with various purified G-proteins, including gustducin, and measured tastant-induced GTP-γS binding (Hoon et al., Biochem J 309:629-636 (1995)). Specifically, infectious Bacmid containing rhodopsin tagged mT2R5 (DBA/2-allele) was produced using the Bac-to-Bac system (Lifetechnologies, MD). Insect larval cells were infected for 60 h with recombinant Bacmid and membranes were prepared as described previously (Ryba and Tirindelli, J Biol Chem, 270:6757-6767 (1995)). Peripheral proteins were removed by treatment with 8 M urea and membranes were resuspended in 10 mM HEPES pH7.5, 1 mM EDTA and 1 mM DTT. The expression of rho-mT2R5 was assessed by Western blot using mAb B6-30 and quantitated by comparison with known amounts of rhodopsin. Approximately 300 pmol of rho-mT2R5 could be obtained from 2×10^8 infected cells. Gustducin and Gβ1γ8 heterodimers were isolated as described previously (Hoon et al., Biochem J 309:629-636 (1995); Ryba and Tirindelli, J Biol Chem, 270:6757-6767 (1995)). Receptor-catalyzed exchange of GDP for GTPγS on gustducin and other G-protein α-subunits was measured in the presence of 10 nM rho-mT2R5, 100 μM GDP, and 20 μM Gβ1γ8. All measurements were made at 15-minute time points, and reflect the initial rate of GTPγS binding.

μ opioid receptor = target: T6, μ opioid receptor (Homo sapiens, UniProt P35372); test: FURA-2 [Ca2+]i imaging in HEK-293 cells with Gα15 and μ opioid receptor; assay type: cell-based; settings: 10 μM
T6 construct: expressed in transfected cells; host or cells: HEK-293 cells containing Gα15
Text: as §1

T1 sequence (P23385 19-1199): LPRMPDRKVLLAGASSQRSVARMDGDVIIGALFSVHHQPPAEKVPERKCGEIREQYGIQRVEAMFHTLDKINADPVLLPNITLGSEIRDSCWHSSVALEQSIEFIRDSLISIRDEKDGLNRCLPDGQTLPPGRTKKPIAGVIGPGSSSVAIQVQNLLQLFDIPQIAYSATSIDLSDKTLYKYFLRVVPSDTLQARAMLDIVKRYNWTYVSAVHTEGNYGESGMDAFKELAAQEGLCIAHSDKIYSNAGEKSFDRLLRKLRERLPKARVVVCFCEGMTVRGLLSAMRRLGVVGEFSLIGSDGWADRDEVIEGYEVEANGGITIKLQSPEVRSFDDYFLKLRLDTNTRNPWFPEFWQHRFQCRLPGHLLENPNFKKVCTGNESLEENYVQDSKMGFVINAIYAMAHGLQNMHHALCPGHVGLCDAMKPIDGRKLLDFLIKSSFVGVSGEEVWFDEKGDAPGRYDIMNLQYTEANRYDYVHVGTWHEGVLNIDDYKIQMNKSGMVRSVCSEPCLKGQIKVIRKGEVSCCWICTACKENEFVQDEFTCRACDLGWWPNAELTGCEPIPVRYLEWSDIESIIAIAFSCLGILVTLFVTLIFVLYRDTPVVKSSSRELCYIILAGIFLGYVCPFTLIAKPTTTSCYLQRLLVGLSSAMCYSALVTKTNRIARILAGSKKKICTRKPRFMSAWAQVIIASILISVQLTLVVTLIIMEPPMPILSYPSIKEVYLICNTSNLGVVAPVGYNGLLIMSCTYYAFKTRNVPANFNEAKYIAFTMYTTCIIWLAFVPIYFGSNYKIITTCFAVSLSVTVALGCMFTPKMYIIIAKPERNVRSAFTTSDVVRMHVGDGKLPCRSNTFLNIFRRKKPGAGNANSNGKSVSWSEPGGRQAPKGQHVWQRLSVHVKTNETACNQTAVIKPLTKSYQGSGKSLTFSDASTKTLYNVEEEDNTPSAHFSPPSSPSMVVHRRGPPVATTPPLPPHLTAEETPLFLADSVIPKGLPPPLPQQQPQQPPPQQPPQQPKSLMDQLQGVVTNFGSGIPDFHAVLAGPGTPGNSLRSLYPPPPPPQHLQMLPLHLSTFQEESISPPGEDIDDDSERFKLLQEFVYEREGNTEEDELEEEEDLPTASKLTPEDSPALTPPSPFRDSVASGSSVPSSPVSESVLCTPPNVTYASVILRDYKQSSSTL
T6 sequence (P35372 whole entry, species assumed): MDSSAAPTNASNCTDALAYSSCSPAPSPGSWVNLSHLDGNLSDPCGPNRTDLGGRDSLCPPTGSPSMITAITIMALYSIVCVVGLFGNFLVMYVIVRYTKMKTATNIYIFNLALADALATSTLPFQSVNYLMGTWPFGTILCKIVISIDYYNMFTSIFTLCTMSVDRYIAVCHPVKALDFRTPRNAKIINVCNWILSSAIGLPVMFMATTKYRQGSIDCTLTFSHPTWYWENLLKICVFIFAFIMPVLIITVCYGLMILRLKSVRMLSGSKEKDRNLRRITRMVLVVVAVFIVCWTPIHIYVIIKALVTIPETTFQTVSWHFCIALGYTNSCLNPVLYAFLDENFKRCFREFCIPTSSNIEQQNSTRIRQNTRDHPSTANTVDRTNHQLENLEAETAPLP

Compound: N[C@@]1(C(=O)O)CC[C@H](C(=O)O)C1 (racemic) [ACPD, trans (±) 1-amino-1,3 cyclopentane dicarboxylic acid]
- [Ca2+]i response (mGluR1 receptor): increase in [Ca2+]i

Compound: CCCc1cc(=O)[nH]c(=S)[nH]1 [6-n-propyl thiouracil]
- [Ca2+]i response to tastant (mT2R5; 10 mM): not observed
- [Ca2+]i response (hT2R4): also responded
- receptor activation (mT2R8): activated
- gustducin activation [1]: not

Compound: C[C@@H](NC(=O)[C@@H](N)Cc1ccc(O)cc1)C(=O)NCC(=O)N(C)[C@@H](Cc1ccccc1)C(=O)NCCO [DAMGO]
- [Ca2+]i response (μ opioid receptor): increase in [Ca2+]i

Compound: CN1[C@@H]2CC[C@H]1C[C@@H](OC(=O)C(CO)c1ccccc1)C2 (stereo partly shown) [atropine]
- [Ca2+]i response to tastant (mT2R5; 5 mM): not observed
- gustducin activation [1]: not

Compound: COc1cc2c(cc1OC)[C@@]13CCN4CC5=CCO[C@H]6CC(=O)N2[C@H]1[C@H]6[C@H]5C[C@H]43 [brucine]
- [Ca2+]i response to tastant (mT2R5; 5 mM): not observed
- gustducin activation [1]: not

Compound: O=C(O)/C=C/c1ccc(O)c(O)c1 [caffeic acid]
- [Ca2+]i response to tastant (mT2R5; 2 mM): not observed

Compound: Cn1c(=O)c2c(ncn2C)n(C)c1=O [caffeine]
- gustducin activation [1]: not

Compound: NC(=S)Nc1ccccc1 [phenyl thiocarbamide]
- [Ca2+]i response to tastant (mT2R5; 3 mM): not observed
- gustducin activation [1]: not

Compound: C=C[C@H]1C[N@@]2CC[C@H]1C[C@H]2[C@H](O)c1ccnc2ccc(OC)cc12 [quinine]
- gustducin activation [1]: not

Compound: O=C1NS(=O)(=O)c2ccccc21 [saccharin]
- [Ca2+]i response to tastant (mT2R5; 10 mM): not observed
- gustducin activation [1]: not

Compound: CC(=O)OC[C@H]1O[C@@](COC(C)=O)(O[C@H]2O[C@H](COC(C)=O)[C@@H](OC(C)=O)[C@H](OC(C)=O)[C@H]2OC(C)=O)[C@@H](OC(C)=O)[C@@H]1OC(C)=O [sucrose octaacetate]
- [Ca2+]i response to tastant (mT2R5; 3 mM): not observed
- gustducin activation [1]: not
